According to PMC4521150, “Discovery of Novel Inhibitors and Fluorescent Probe Targeting NAMPT” (Scientific Reports, 2015):
Like-named read-outs stand apart in the source and are kept apart here.

How the values were obtained:
HepG2 cells [1] = assay: Cell viability assay (CCK-8) in HepG2 cells; format: cell-based, human; settings: for IC50: HepG2, 48 h, CCK-8, read-out: IC50 for inhibitory effect on HepG2 cell viability
Experimental: (§1) Cell viability was determined by our previous method[27] using the Cell Counting Kit-8 (CCK-8, Dojindo, Japan). In human hepatocellular carcinoma cell line HepG2, cells were seeded in 96-well plate and starved for over 12 h with serum-free DMEM at 60~70% confluency, then treated with compounds or vehicle for 48 h. To determine the IC50 values of inhibitors, compounds with various concentrations were added into the 96-well plate. 10 μl CCK-8 solution was added to the culture medium and incubated at 37 °C for 1 h. The absorbance at 450 nm (A450) was detected by a plate reader. Each experiment was carried out in triplicate in three replicate wells. The IC50 values were determined by non-linear fitting of the concentration-dependent curves with the four-parameter IC50 logistic equation.

Huh-7 cell = assay: Cell viability in Huh-7 cells; format: cell-based, human; settings: Huh-7, Figure S2
Description: However, IC50 values for other 5 fluorescent compounds were able to be determined (Supplemental dataset S2). We then measured the fluorescence of all 9 fluorescent compounds at a series of different concentrations.

[2] = system: primary mouse hepatocytes; assay: Cell viability of primary hepatocytes from normal mice; format: cell-based; settings: 30 μM
Experimental: as §1
Hepatocytes were isolated from mouse liver by the two-step collagenase perfusion method. […] For imaging experiment, 1 × 10^5 cells were plated in a 35-mm glass bottom dishes or 5 × 10^4 were plated in 48-well plate for cell viability assay in DMEM supplemented with 10% FBS and antibiotics, and kept under an atmosphere of 95% air and 5% CO2 at 37 °C.

HepG2 NAD levels = assay: Cellular NAD measurement (enzymatic cycling assay) in HepG2 cells; format: cell-based, human
Experimental: Cellular level of NAD was measured by spectrophotometric enzymatic cycling assay, as described previously. Briefly, cells were seeded in 96-well plate and starved for over 12 h with serum-free DMEM at 60~70% confluency, following by treatment with compounds or vehicle for 24 h. Cells were lysed with 50 μl of 1M HClO4 on ice for 30 min. The lysates were cleared by centrifuging at 4 °C at 18,000 × g for 5 min, and cleared lysates (40 μl) were neutralized by adding 1M K2CO3 (16 μl) and incubation on ice for 20 min. After centrifuging for 10 min, 10 μl of supernatant were mixed with reaction buffer [50 mM Tris-HCl (pH 7.5), 3% ethanol, 1.66 mM PES (phenazineethosulfate), 0.42 mM MTT (3-(4,5-dimethylthiazolyl-2)-2,5-diphenyltetrazolium bromide), 90 μg/ml ADH] in a total volume of 100 ul, and incubated at 37 °C for 40 min. The absorbance at 570 nm was determined. A blank measurement without ADH was also carried out. Each experiment was carried out in triplicate in three replicate wells

HepG2 cells [3] = assay: Live cell fluorescence imaging of compounds in HepG2 cells; format: cell-based, human; settings: 3 μM, 30 minutes incubation, washed
Experimental: NAMPT knockdown in HepG2 cells was performed by transfection of NAMPT siRNA synthesized by Shanghai GenePharma Co., Ltd (Shanghai, China). The siRNA sequence targeting NAMPT corresponded to coding regions (5′-[…]-3′, 5′-[…]-3′) of the NAMPT gene. The nonspecific siRNA oligonucleotides (synthesized by Shanghai GenePharma Co., Ltd, Shanghai, China) were used as negative controls. 10 nM of NAMPT siRNA or nonspecific siRNA were transfected into HepG2 cells with Lipofectamine RNAiMax reagent (Invitrogen, CA, USA) according to the manufacturer’s instructions. After 24 or 48 hours, transfected cells were subjected to subsequent analysis.
For imaging experiment, HepG2 cells or primary hepatocytes were seeded into 35-mm glass bottom dishes (In Vitro Scientific). The following day, compounds were added to the medium at a final concentration of 3 μM. After 30 minutes, cells were rinsed twice with PBS (pH 7.5), then incubated in fresh culture medium and imaged on a fluorescence microscope (IX-71, Olympus) with a digital camera (Olympus). After 4 hours, these cells were imaged once again. Digital images were recorded and analyzed using ImageJ.

Compound: Cc1nc2ccccc2n(Cc2ccc(C(=O)NCc3cccnc3)cc2)c1=O [F671-0003]
- Effect on HepG2 cell viability at 2 μM (HepG2 cells [1]; 2 μM, 48 hours of incubation): significant inhibition on cell viability
- Inhibition on cell viability (HepG2 cells [1]; HepG2, 2 μM, 48 h): 50%
- Rescue of cell viability by exogenous NMN (HepG2 cells [1]; HepG2, 3 μM compound, NMN at 300 μM): totally rescued
- IC50 (HepG2 cells [1]): 1690 ± 150 nM
- IC50 (HepG2 cells [1]; Homo sapiens): ~2000 nM
- Effect on Huh-7 cell viability (Huh-7 cell): Inhibitory effects
- Inhibition of normal hepatocytes viability [2]: ~ 20%
- Decrease of cellular NAD level (HepG2 NAD levels; HepG2, 1 μM, 24 hours): ~ 80%
- IC50 (HepG2 NAD levels; Homo sapiens, HepG2, 24 hours treatment, read-out: IC50 for reducing NAD level): 6.71 nM
- Cellular fluorescence in living HepG2 cells (HepG2 cells [3]): did not show any fluorescence
